Measurements reported in ChEMBL document CHEMBL6078680, “Improving the Stability and Anti-Infective Activity of Sea Turtle AMPs Using Multiple Structural Modification Strategies” (J Med Chem, 2024).
Calls of active or inactive are those of the source. No cut-off for these calls is given here. Starred links: 1 amine or outer side, 2 acyl side, 3 side chain; linkers in the order of their positions; H or OH if unused. Positions of bridges follow the written chain, without caps; N, C: chain ends. Non-standard residues stand in square brackets, D forms with d. Residues, ends and D or L forms follow the SMILES beside them. *: point of attachment. X1 = C[C@@](CCCCC=[*:3])(N[*:1])C(=O)[*:2]; hArg = N=C(N)NCCCC[C@H](N)C(=O)O; X3 = CC[C@H](C)CCCCC(=O)*; Dab = NCC[C@H](N)C(=O)O

Key:
Staphylococcus aureus [1] = assay: Antimicrobial activity against Staphylococcus aureus CMCC 26003 at 5 times MIC measured at 180 mins; format: functional, organism-based
Peritoneal macrophage [2] = assay: Antiinflammatory activity in mouse Peritoneal macrophage cells assessed as inhibition of LPS-induced TNF-alpha production at 20 microg/ml incubated for 6 hrs by ELISA analysis; format: functional, cell-based; conditions: dose 20.0 µg/ml
Trypsin = Trypsin (Homo sapiens, UniProt P07477+P07478+P35030); assay: Stability of compound assessed as trypsin (unknown origin) mediated drug degradation […] measured after 24 hrs by RP-HPLC analysis; format: ADME, protein assay; conditions: read-out: Activity
Peritoneal macrophage [3] = assay: Antiinflammatory activity in mouse Peritoneal macrophage cells assessed as inhibition of LPS-induced IL-6 production at 20 microg/ml incubated for 6 hrs by ELISA analysis; format: functional, cell-based; conditions: dose 20.0 µg/ml
[4] = Hemolytic activity at human Erythrocyte assessed as hemolysis at 100 microg/ml; format: toxicity, cell-based; conditions: erythrocytes, at 100 µg/mL, read-out: Activity
Peritoneal macrophage [5] = assay: Antiinflammatory activity in mouse Peritoneal macrophage cells assessed as inhibition of LPS-induced IL-6 production my measuring fold change at 20 microg/ml incubated for 6 hrs by ELISA analysis; format: functional; conditions: dose 20 µg/ml
[6] = Acute toxicity in BALB/c mouse assessed as mortality at 20 mg/kg, iv measured for 24 hrs; format: organism-based; conditions: in vivo, read-out: Activity
[7] = Acute toxicity in BALB/c mouse assessed as mortality at 15 mg/kg, iv measured for 24 hrs; format: organism-based; conditions: in vivo, read-out: Activity
[8] = Acute toxicity in BALB/c mouse assessed as mortality at 50 mg/kg, iv measured for 24 hrs; format: organism-based; conditions: in vivo, read-out: Activity
[9] = Acute toxicity in BALB/c mouse assessed as mortality at 10 mg/kg, iv measured for 24 hrs; format: organism-based; conditions: in vivo, read-out: Activity
Staphylococcus aureus [10] = assay: Antimicrobial activity against Staphylococcus aureus CMCC 26003 at 5 times MIC by time kill assay; format: functional, organism-based; conditions: time 180.0 min
Escherichia coli [11] = assay: Antimicrobial activity against Escherichia coli ATCC 25922 assessed as reduction in microbial growth incubated for 18 hrs by broth microdilution method; format: functional
Staphylococcus aureus [12] = assay: Antimicrobial activity against Staphylococcus aureus ATCC 43300 assessed as reduction in microbial growth incubated for 18 hrs by broth microdilution method; format: functional
Escherichia coli [13] = assay: Antimicrobial activity against Escherichia coli CMCC44102 assessed as reduction in microbial growth incubated for 18 hrs by broth microdilution method; format: functional
Clostridium perfringens = assay: Antimicrobial activity against Clostridium perfringens ATCC 13124 assessed as reduction in microbial growth incubated for 18 hrs by broth microdilution method; format: functional
[14] = tested on: Staphylococcus epidermidis; assay: Antimicrobial activity against Staphylococcus epidermidis assessed as reduction in microbial growth incubated for 18 hrs by broth microdilution method; format: functional
Staphylococcus aureus [15] = assay: Antimicrobial activity against Staphylococcus aureus 08032706 assessed as reduction in microbial growth incubated for 18 hrs by broth microdilution method; format: functional
Pseudomonas aeruginosa = assay: Antimicrobial activity against Pseudomonas aeruginosa CMCC10104 assessed as reduction in microbial growth incubated for 18 hrs by broth microdilution method; format: functional
Staphylococcus aureus [16] = assay: Antimicrobial activity against Staphylococcus aureus CMCC 26003 assessed as reduction in microbial growth incubated for 18 hrs by broth microdilution method; format: functional
Enterococcus faecium = assay: Antimicrobial activity against Enterococcus faecium 34 assessed as reduction in microbial growth incubated for 18 hrs by broth microdilution method; format: functional
Enterococcus faecalis = assay: Antimicrobial activity against Enterococcus faecalis ATCC 29217 assessed as reduction in microbial growth incubated for 18 hrs by broth microdilution method; format: functional
Salmonella enteritidis = assay: Antimicrobial activity against Salmonella enterica subsp. enterica serovar Enteritidis ATCC 14028 assessed as reduction in microbial growth incubated for 18 hrs by broth microdilution method; format: functional
Acinetobacter baumannii = assay: Antimicrobial activity against Acinetobacter baumannii ATCC19606 assessed as reduction in microbial growth incubated for 18 hrs by broth microdilution method; format: functional

CC[C@H](C)[C@H](NC(=O)[C@H](CCCCNC(=N)N)NC(=O)[C@H](CO)NC(=O)[C@H](Cc1c[nH]cn1)NC(=O)[C@H](CCCCNC(=N)N)NC(=O)[C@H](CC(C)C)NC(=O)[C@@H](NC(=O)[C@H](CCCCNC(=N)N)NC(=O)CNC(=O)[C@H](CC(C)C)NC(=O)[C@H](CCC(N)=O)NC(=O)[C@H](CCCCNC(=N)N)NC(=O)[C@H](CCCCNC(=N)N)NC(=O)[C@@H](NC(=O)[C@H](CCCCNC(=N)N)NC(=O)[C@H](CCCCNC(=N)N)NC(=O)[C@@H](N)Cc1ccccc1)C(C)C)C(C)C)C(=O)N[C@H](C(=O)N[C@H](C(=O)NCC(=O)NCC(=O)N[C@@H](CCCCNC(=N)N)C(=O)N[C@@H](CCSC)C(=O)N[C@@H](CCCCNC(=N)N)C(=O)N[C@@H](Cc1ccccc1)C(=O)O)C(C)C)[C@@H](C)O (H-F[hArg][hArg]V[hArg][hArg]QLG[hArg]VL[hArg]HS[hArg]ITVGG[hArg]M[hArg]F-OH)
Activity (Staphylococcus aureus [1]): inactive
Activity (Peritoneal macrophage [2]): Active
metabolised at 24 h (Trypsin): ~20%
Activity (Peritoneal macrophage [3]): Active
hemolysis at 100 microg/ml [4]: < 5%

CC[C@H](C)[C@H](NC(=O)[C@H](CCCNC(=N)N)NC(=O)[C@H](CO)NC(=O)[C@H](Cc1c[nH]cn1)NC(=O)[C@H](CCCNC(=N)N)NC(=O)[C@H](CC(C)C)NC(=O)[C@@H](NC(=O)[C@H](CCCNC(=N)N)NC(=O)CNC(=O)[C@H](CC(C)C)NC(=O)[C@H](CCC(N)=O)NC(=O)[C@H](CCCCN)NC(=O)[C@]1(C)CCCC/C=C\CCCC[C@](C)(N)C(=O)N[C@@H](CCCCN)C(=O)N[C@@H](CCCCN)C(=O)N[C@@H](C(C)C)C(=O)N1)C(C)C)C(=O)N[C@H](C(=O)N[C@H](C(=O)NCC(=O)NCC(=O)N[C@@H](CCCNC(=N)N)C(=O)N[C@@H](CCSC)C(=O)N[C@@H](CCCNC(=N)N)C(=O)N[C@@H](Cc1ccccc1)C(=O)O)C(C)C)[C@@H](C)O (H-[X1]KKV[X1]KQLGRVLRHSRITVGGRMRF-OH; staple (Z) 1-5)
Activity (Staphylococcus aureus [1]): inactive
Activity (Peritoneal macrophage [2]): Active
fold change (FC) (Peritoneal macrophage [5]): 2
Activity (Peritoneal macrophage [3]): Active
hemolysis at 100 microg/ml [4]: < 5%

CC(C)CCCCC(=O)N[C@@H](CCN)C(=O)N[C@H](C(=O)N[C@@H](CCN)C(=O)N[C@H]1CCNC(=O)[C@H]([C@@H](C)O)NC(=O)[C@H](CCN)NC(=O)[C@H](CCN)NC(=O)[C@H](CC(C)C)NC(=O)[C@@H](Cc2ccccc2)NC(=O)[C@H](CCN)NC1=O)[C@@H](C)O.CC[C@H](C)CCCCC(=O)N[C@@H](CCN)C(=O)N[C@H](C(=O)N[C@@H](CCN)C(=O)N[C@H]1CCNC(=O)[C@H]([C@@H](C)O)NC(=O)[C@H](CCN)NC(=O)[C@H](CCN)NC(=O)[C@H](CC(C)C)NC(=O)[C@@H](Cc2ccccc2)NC(=O)[C@H](CCN)NC1=O)[C@@H](C)O (X3-[Dab]T[Dab][Dab][Dab][dF]L[Dab][Dab]T; lactam 4-C)
mortality at 24 h [6]: 100%
mortality at 24 h [7]: 100%
mortality at 24 h [8]: 100%
mortality at 24 h [9]: 50%

CC1(C)S[C@@H]2[C@H](NC(=O)[C@H](N)c3ccccc3)C(=O)N2[C@H]1C(=O)O [AMPICILLIN]
AC30 (Staphylococcus aureus [10]): Active
MIC (Escherichia coli [11]): 2.34 µg/mL
MIC (Staphylococcus aureus [12]): 9.38 µg/mL
MIC (Escherichia coli [13]): 2.34 µg/mL
MIC (Clostridium perfringens): 2.34 µg/mL
MIC [14]: 2.34 µg/mL
MIC (Staphylococcus aureus [15]): < 0.78 µg/mL
MIC (Pseudomonas aeruginosa): > 100 µg/mL
MIC (Staphylococcus aureus [16]): < 0.78 µg/mL
MIC (Enterococcus faecium): < 0.78 µg/mL
MIC (Enterococcus faecalis): < 0.78 µg/mL
MIC (Salmonella enteritidis): 1.17 µg/mL
MIC (Acinetobacter baumannii): > 100 µg/mL
